Measurements reported in patent US8598122B2, “Antagonistic peptides for frizzled-1 and frizzled-2” (Universiteit Maastricht, priority 2009, dated 2013).
Where a SMILES comes first, the peptide text is derived from it. Bridges are numbered along the chain shown (N, C = ends). Where no end group is shown, it is not given here. rhodamine = not defined here

How the values were obtained:
frizzled-1 (rFzd-1) = target: T1, frizzled-1 (rFzd-1) (Rattus norvegicus, UniProt Q08463); assay: Activity assay: Wnt3a-induced luciferase (superTOPflash) in HEK cells transfected with frizzled-1; assay type: cell-based; conditions: for Blocking of Wnt3a-induced luciferase activity, rFzd-1: peptide 1.10^−8 M
T1 construct: expressed in transfected cells; host or cells: HEK293 superTOPflash (human embryonic kidney), transient, pcDNA3.1/hygro
Description: (§1) Human embryonic kidney (HEK) cells were used for screening. These cells have a luciferase construct stably transfected into the genome (see FIG. 2A), such that when the frizzled receptor is activated and β-catenin is increased, the luciferase is activated by transcription and light can be measured.
(§2) The peptides were tested by transfecting the frizzled-1 or the frizzled-2 receptor and addition of UM206(S-S) to the cell culture. For testing antagonistic activity, UM206 was added and the natural ligand Wnt3a was added, which is a natural stimulus for the canonical pathway.
(§3) Day 2: Transfection 12-well plates • heat Fugene6 and DNA 15 minutes at RT • 2 ml serum-free medium in tube • add 3μl fugene • add 2 μg DNA • incubate 30 minutes at RT • wash with PBS • add 50 μtransfectiemix • add 1 ml antibiotica-free medium
(§4) Day 3: Add conditioned medium or UM206
(§5) Day 4: Luciferase activity measurements • remove medium • wash with PBS • add 500 μl ⅕ lysisbuffer • shake for 60 minutes • centrifuge in tube • 20 μl lysaat and 50 μl luciferase in new tube for measurement • vortex • measure
(§6) To determine the inhibitory constant of UM206-8, HEK293-superTOPflash cells were transfected with either rFzd-1 or -2 and incubated with Wnt3a (10^−9M) in the presence of increasing concentrations of either of the peptides (FIG. 15). For UM206, a biphasic inhibition curve was observed that was best fitted with a two-binding-state model.
(§7) The cell lines were cultured in 75 cm^2 culture flasks (Corning, Schiphol, the Netherlands) in Dulbeco's modified essential medium with L-glutamine (2 mM), 10% fetal calf serum (Invitrogen, Merelbeke, Belgium), and 1% gentamycin (Sigma-Aldrich, Zwijndrecht, The Netherlands). Before starting the experiment, the cell lines were treated with plasmocin 25 μg/ml (Invivogen, Toulose, France) and tested with a mycoalert mycoplasma detection kit (Lonza, Rockland Me., USA). Cells were transiently transfected with Fugene6 (Roche, Indianapolis Ind., USA) with plasmid DNA, pcDNA3.1/hygro (Invitrogen) with frizzled-1/2/4 or Wnts 3a-5a or with pcDNA3.0 (Invitrogen) containing the β-catenin or frizzled-5 sequence. After transfection, the cells were cultured for 24 hours in conditioned medium, collected from the cultured L-cells, L-cells with Wnt3a or 5a (Invitrogen). At the same moment the antagonist was added.

frizzled-2 (rFzd-2) = target: T2, frizzled-2 (rFzd-2) (Rattus norvegicus, UniProt Q08464); assay: Activity assay: Wnt3a-induced luciferase (superTOPflash) in HEK cells transfected with frizzled-2; assay type: cell-based; conditions: for Blocking of Wnt3a-induced luciferase activity, rFzd-2: peptide 1.10^−8 M
T2 construct: expressed in transfected cells; host or cells: HEK293 superTOPflash (human embryonic kidney), transient, pcDNA3.1/hygro
Description: as §1, §2, §3, §4, §5, §6, §7

frizzled receptor = assay: Activity on the frizzled receptor (activity assay of Example 1), result in words; assay type: cell-based
Description: as §1, §2
Analogues of UM206 were prepared by solid phase peptide synthesis. Each amino acid residue was sequentially replaced by an alanine residue and antagonistic activity of the analogue was tested as described in the activity assay of Example 1. […] Titles indicate which amino acid residue was substituted by an alanine residue.

hFzd-4 = target: T3, hFzd-4 (Homo sapiens, UniProt Q9ULV1); assay: Luciferase activity in HEK293 superTOPflash cells overexpressing hFzd-4; assay type: cell-based; conditions: FIG. 3, Panel F
T3 construct: expressed in transfected cells; host or cells: HEK293 superTOPflash, transient, pcDNA3.1/hygro
T3 sequence (Q9ULV1 37-537): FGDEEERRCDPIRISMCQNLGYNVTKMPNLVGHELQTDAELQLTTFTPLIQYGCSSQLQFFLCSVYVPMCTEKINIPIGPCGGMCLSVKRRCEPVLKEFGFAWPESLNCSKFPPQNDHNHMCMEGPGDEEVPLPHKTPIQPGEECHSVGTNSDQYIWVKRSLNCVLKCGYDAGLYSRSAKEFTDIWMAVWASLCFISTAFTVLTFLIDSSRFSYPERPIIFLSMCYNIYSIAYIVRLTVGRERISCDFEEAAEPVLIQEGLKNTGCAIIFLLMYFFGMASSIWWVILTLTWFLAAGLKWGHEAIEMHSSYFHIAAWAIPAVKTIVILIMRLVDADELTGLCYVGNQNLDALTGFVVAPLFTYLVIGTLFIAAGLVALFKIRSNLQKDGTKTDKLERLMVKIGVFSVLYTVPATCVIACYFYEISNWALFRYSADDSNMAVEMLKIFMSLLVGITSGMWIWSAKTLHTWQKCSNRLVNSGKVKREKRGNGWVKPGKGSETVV
Description: (§8) In FIG. 3, Panel E, the efficacy of UM206 to block the Wnt3a-induced activation of luciferase activity in HEK293 superTOPflash cells transfected with different Fzds is shown.
as §7

hFzd-5 = target: T4, hFzd-5 (Homo sapiens, UniProt Q13467); assay: Luciferase activity in HEK293 superTOPflash cells overexpressing hFzd-5; assay type: cell-based; conditions: FIG. 3, Panel F
T4 construct: expressed in transfected cells; host or cells: HEK293 superTOPflash, transient, pcDNA3.0
Description: as §8, §7

[1] = tested on: Wnt/Fzd signal transduction cascade; assay: Luciferase activity in HEK293-superTOPflash cells (Wnt/Fzd signal transduction cascade); assay type: cell-based, human; conditions: for Luciferase activity induced by the peptide by itself: without Wnt3a
Description: as §1
Three areas of high homology that contained two cysteines are underlined (UM207), (UM208) and (UM206). In FIGS. 9B through 9D, the inhibitory effect of these three peptides on Wnt3a-induced luciferase activity in HEK293-superTOPflash is shown. […] Again, the peptides by themselves had no effect on the luciferase activity.

Fzd-1 and -2 = assay: UM206-Rhodamine binding to frozen sections of mouse kidney and gut and its blocking; conditions: 1.10^−8 M
Description: Specificity of the binding site was confirmed by prior incubation of the tissue sections with UM207 (1.10^−8 M) or recombinant Wnt3a (1.10^−8 M).
One-half of the hearts of the mice was embedded in paraffin and cut in 4 μm sections. The paraffin sections were rehydrated and washed in PBS. One section was stained with AZAN, allowing an accurate determination of the infarct size. To visualize the myofibroblasts in the infarct area, the sections were incubated with an antibody directed against a-smooth muscle actin (Sigma-Aldrich), followed by incubation with the peroxidase-conjugated secondary antibody (Vector laboratories). Nuclei were visualized by hematoxylin. Photos were taken with a Leica (CTR500, 63x/0.85) camera and analyzed with the Quantimet program (QWin/QGo). An examiner blinded to the groups of the animals obtained all measurements. For the experiments with Rhodamine-labeled UM206, frozen sections (4 μm) of mouse kidney and small intestine were used.

[2] = tested on: C-FIT cells (cardiac fibroblasts immortalized with telomerase); assay: Migration (wound/scratch) assay with C-FIT cells overexpressing Fzd-1 or -2; assay type: cell-based, rat
Description: For this assay, we used rat cardiac fibroblasts, which were immortalized with telomerase, the C-FIT cell line. This cell line was characterized previously and resembles features of primary cardiac fibroblasts. C-FIT cells were plated, treated when they were 70% confluent and a wound was made with a pipette tip at the moment of 100% confluence.
This assay was first tested with the natural ligand Wnt3a, in combination with frizzled-1 and -2 overexpression. […] Next step was to see whether the antagonist could counteract this. (See FIG. 4.)
Day 1: • Plate cells in 12-well plates
Day 2: • Transfection (see protocol)
Day 3: • Addition of conditioned medium
Day 4: • Make a scratch. This is time point zero.
Making pictures every six hours and analyzing the scratch width.
Cells were plated on day 0, and cultured until 70% confluence before transfection or treatment. Migration assays started 48 hours after transfection and/or treatment. The time point where the scratch was made, is indicated as 0 hours. Scratch width was measured at this time point, and also after 6, 12, and 24 hours.

T1 sequence (Q08463 69-641): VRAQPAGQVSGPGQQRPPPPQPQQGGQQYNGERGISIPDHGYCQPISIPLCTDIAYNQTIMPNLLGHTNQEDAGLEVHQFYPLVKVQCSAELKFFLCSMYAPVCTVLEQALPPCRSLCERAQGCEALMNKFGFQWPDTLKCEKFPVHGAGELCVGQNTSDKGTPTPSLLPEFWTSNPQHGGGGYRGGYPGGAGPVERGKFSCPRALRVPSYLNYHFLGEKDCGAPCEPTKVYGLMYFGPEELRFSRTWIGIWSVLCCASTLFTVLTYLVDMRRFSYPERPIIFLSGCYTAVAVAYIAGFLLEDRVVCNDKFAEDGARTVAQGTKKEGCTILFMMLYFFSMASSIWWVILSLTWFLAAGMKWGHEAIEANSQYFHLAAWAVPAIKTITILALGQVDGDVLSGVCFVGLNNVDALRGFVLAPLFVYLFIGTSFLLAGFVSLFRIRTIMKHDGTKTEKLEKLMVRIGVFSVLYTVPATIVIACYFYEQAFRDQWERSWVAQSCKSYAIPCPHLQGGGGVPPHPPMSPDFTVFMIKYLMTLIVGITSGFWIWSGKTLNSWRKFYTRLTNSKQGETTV
T2 sequence (Q08464 29-570): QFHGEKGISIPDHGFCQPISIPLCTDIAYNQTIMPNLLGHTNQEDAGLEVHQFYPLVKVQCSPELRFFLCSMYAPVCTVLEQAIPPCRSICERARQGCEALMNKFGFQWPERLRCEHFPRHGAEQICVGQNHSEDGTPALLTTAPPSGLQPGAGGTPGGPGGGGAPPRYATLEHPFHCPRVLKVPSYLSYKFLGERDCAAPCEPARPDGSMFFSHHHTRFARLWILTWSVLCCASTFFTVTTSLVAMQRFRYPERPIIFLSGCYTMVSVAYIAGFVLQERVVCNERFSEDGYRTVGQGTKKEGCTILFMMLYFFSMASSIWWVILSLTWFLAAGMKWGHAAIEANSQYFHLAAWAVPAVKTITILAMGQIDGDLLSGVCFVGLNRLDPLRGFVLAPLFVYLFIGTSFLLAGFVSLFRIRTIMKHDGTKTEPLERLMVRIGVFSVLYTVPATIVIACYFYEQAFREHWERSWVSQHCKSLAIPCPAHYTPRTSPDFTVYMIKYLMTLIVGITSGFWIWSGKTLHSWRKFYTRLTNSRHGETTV
T4 sequence (Q13467 27-585): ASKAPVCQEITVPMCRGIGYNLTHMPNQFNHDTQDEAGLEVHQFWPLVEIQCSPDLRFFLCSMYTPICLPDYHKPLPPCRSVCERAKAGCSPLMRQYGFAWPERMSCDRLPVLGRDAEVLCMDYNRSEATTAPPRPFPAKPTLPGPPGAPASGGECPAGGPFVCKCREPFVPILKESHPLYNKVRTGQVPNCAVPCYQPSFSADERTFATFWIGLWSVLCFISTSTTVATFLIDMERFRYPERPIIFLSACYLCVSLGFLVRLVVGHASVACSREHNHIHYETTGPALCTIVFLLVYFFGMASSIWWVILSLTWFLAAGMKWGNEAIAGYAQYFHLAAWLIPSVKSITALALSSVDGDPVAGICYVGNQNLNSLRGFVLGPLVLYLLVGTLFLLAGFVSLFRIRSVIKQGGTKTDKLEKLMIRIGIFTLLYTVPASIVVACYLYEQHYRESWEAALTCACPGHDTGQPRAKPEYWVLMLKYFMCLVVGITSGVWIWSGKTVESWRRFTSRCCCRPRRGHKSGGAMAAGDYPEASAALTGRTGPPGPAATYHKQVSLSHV

## CC[C@H](C)[C@H](NC(=O)CNC(=O)[C@H](Cc1c[nH]cn1)NC(=O)[C@H](CO)NC(=O)[C@H](CO)NC(=O)[C@@H](NC(=O)[C@H](CC(N)=O)NC(=O)[C@H](CS)NC(C)=O)C(C)C)C(=O)N[C@@H](CC(=O)O)C(=O)NCC(=O)N[C@@H](CS)C(=O)N[C@@H](CC(=O)O)C(=O)N[C@@H](CC(C)C)C(N)=O [CNVSSHGIDGCDL] (Ac-CNVSSHGIDGCDL-NH2; N-terminus assumed)
frizzled-1 (rFzd-1); 1.0
  % of inhibition for Fzd-1: 45.32%
frizzled-2 (rFzd-2); 1.0
  % of inhibition for Fzd-2: 62.41%
Frizzled receptor
  Activity on the frizzled receptor (in words): showed antagonistic properties too, albeit that the potency was lower than that of UM206

## CSCC[C@@H]1NC(=O)CNC(=O)[C@H](CCC(=O)O)NC(=O)[C@H](CO)NC(=O)[C@H]([C@@H](C)O)NC(=O)[C@H](CCCCN)NC(=O)[C@H](CC(N)=O)NC(=O)[C@@H](NC(C)=O)CSSC[C@@H](C(=O)N[C@@H](CCC(=O)O)C(=O)N[C@@H](CC(C)C)C(N)=O)NC(=O)CNC(=O)[C@H](CC(=O)O)NC1=O [UM206(S-S)] (Ac-CNKTSEGMDGCEL-NH2; disulfide 1-11)
frizzled-1 (rFzd-1); FIG. 3, Panel F
  Agonist activity, frizzled-1: specific agonist
frizzled-2 (rFzd-2); FIG. 3, Panel F
  Agonist activity, frizzled-2: specific agonist
hFzd-4
  Agonist activity, frizzled-4: not for frizzled-4 or frizzled-5
hFzd-5
  Agonist activity, frizzled-5: not for frizzled-4 or frizzled-5

## CC[C@H](C)[C@H](NC(=O)CNC(C)=O)C(=O)N[C@@H](CCCCN)C(=O)N[C@@H](CCC(=O)O)C(=O)N[C@@H](CS)C(=O)N[C@@H](CCC(N)=O)C(=O)N[C@@H](Cc1ccc(O)cc1)C(=O)N[C@@H](CCC(N)=O)C(=O)N[C@@H](Cc1ccccc1)C(=O)N[C@@H](CCCNC(=N)N)C(=O)N[C@@H](Cc1c[nH]cn1)C(=O)N[C@@H](CCCNC(=N)N)C(=O)N[C@@H](CCCNC(=N)N)C(=O)N[C@@H](Cc1c[nH]c2ccccc12)C(=O)N[C@@H](CC(N)=O)C(=O)N[C@@H](CS)C(=O)N[C@@H](CO)C(=O)N[C@H](C(=O)N[C@H](C(=O)N[C@@H](CC(=O)O)C(N)=O)C(C)C)[C@@H](C)O [UM207] (Ac-GIKECQYQFRHRRWNCSTVD-NH2)
frizzled-1 (rFzd-1)
  Blocking of Wnt3a-induced luciferase activity, rFzd-1: blocked almost completely
frizzled-2 (rFzd-2)
  Blocking of Wnt3a-induced luciferase activity, rFzd-2: blocked almost completely
Frizzled receptor
  Activity on the frizzled receptor (in words): potent antagonist
[1]
  Luciferase activity induced by the peptide by itself: none of the three peptides by itself could induce an increase in luciferase activity
Fzd-1 and -2
  Blocking of UM206-rhodamine binding by prior incubation: completely abolished the binding

## CC(=O)NCC(=O)N[C@@H](CO)C(=O)N[C@@H](CS)C(=O)N[C@@H](CO)C(=O)N[C@@H](CC(C)C)C(=O)N[C@@H](CCCCN)C(=O)N[C@H](C(=O)N[C@@H](CS)C(=O)N[C@@H](Cc1c[nH]c2ccccc12)C(=O)N[C@@H](CC(C)C)C(=O)N[C@@H](CCC(N)=O)C(=O)N[C@@H](CC(C)C)C(=O)N[C@@H](C)C(=O)N[C@@H](CC(=O)O)C(N)=O)[C@@H](C)O [UM208, GSCSLKTCWLQLAD] (Ac-GSCSLKTCWLQLAD-NH2)
frizzled-1 (rFzd-1)
  Blocking of Wnt3a-induced luciferase activity, rFzd-1: blocked almost completely
frizzled-2 (rFzd-2)
  Blocking of Wnt3a-induced luciferase activity, rFzd-2: blocked almost completely
[1]
  Luciferase activity induced by the peptide by itself: none of the three peptides by itself could induce an increase in luciferase activity

## UM206-rhodamine: UM206 with rhodamine attached to Lys^3 (Ac-CNK(rhodamine)TSEGMDGCEL-NH2; reading uncertain; also: printed as Ac-Cys-Asn-Lys-Thr-Ser-Glu-Gly-Met-Asp-Gly-Cys-Glu-Leu-NH2)
Fzd-1 and -2; 15 minutes, two-foton microscopy
  Staining of frozen sections of mouse kidney and gut: staining of tubular epithelium and panneth cells

## UM207 S-S: UM207 forced to form a cyclic structure by inducing a S-S bond between the two cysteine residues (GIKECQYQFRHRRWNCSTVD-NH2; disulfide 5-16 (inferred); not fully specified (N-terminus))
Frizzled receptor
  Activity on the frizzled receptor (in words): potent agonist

## Wnt3a
frizzled-2 (rFzd-2); concentration-dependent
  Increase of the luciferase activity by natural ligand in combination with frizzled-2: twelve-fold
[1]; HEK293-superTOPflash, no Fzd transfection
  Increase of luciferase activity on addition of Wnt3a: ~450 fold
[2]
  Effect of Wnt protein on migration of CFIT overexpressing rFzd-1 or -2: attenuated the migration
Fzd-1 and -2
  Blocking of UM206-rhodamine binding by prior incubation: completely abolished the binding

B1: Wnt5a: natural ligand (Wnt protein) for frizzled-1 and frizzled-2 (protein, listed as Homo sapiens)
chain: FFLMALATFFSFAQVVIEANSWWSLGMNNPVQMSEVHIIGAQPLCSQLAGLSQGQKKLCHLYQDHMQYIGEGAKTGIKECQYQFRHRRWNCSTVDNTSVFGRVMQIGSRETAFTYAVSAAGVVNAMSRACREGELSTCGCSRAARPKDLPRDWLWGGCGDNIDYGYRFAKEFVDARERERIHAKGSYESARILMNLHNNEAGRRTVYNLADVACKCHGVSGSCSLKTCWLQLADFRKVGDALKEKYDSAAAMRLNSRGKLVQVNSRFNSPTTQDLVYIDPSPDYCVRNESTGSLGTQGRLCNKTSEGMDGCELMCCGRGYDQFKTVQTERCHCKFHWCCYVKCKKCTEIVDQFVCK
[2]
  Effect of Wnt protein on migration of CFIT overexpressing rFzd-1 or -2: attenuated the migration
